According to publication PMC12347391, “Sulforaphane-Rich Broccoli Sprout Extract Promotes Hair Regrowth in an Androgenetic Alopecia Mouse Model via Enhanced Dihydrotestosterone Metabolism” (International Journal of Molecular Sciences, 2025):
Like-named read-outs stand apart in the source and are kept apart here.

Tests used:
[1] = system: CCD-986sk dermal fibroblasts; conditions: human, 24 h
[2] = in humans; cited from earlier work
[3] = system: HDP cells; test: Boyden chamber migration assay; type: cell-based, human; conditions: 24 h, BSE based on SFN equivalence
Protocol: To evaluate the migratory ability of HDP cells, a Boyden chamber assay was performed. HDP cells were serum-starved for 24 h in a medium containing 0.5% (v/v) FCS. […] The lower chambers were filled with 600 µL of HDP medium supplemented with 4% FCS, 4% bovine pituitary extract, 1 ng/L recombinant human fibroblast growth factor, and 5 µg/L recombinant human insulin. After a 24 h incubation period to allow for migration, cells were fixed with 4% paraformaldehyde (BL539A, Biosharp, Hefei, Anhui, China) for 15 min and stained using Crystal Violet Staining Solution (C0121, Beyotime, Shanghai, China) for 10 min. Non-migrated cells on the upper side of the insert membrane were carefully removed using a cotton swab. To quantify migrated cells, the basal chambers were filled with 500 µL of calcein-AM-based cell dissociation solution. Cells were incubated for 1 h at 37 °C, and the fluorescence of the dissociated calcein-AM was measured using a microplate reader at an excitation wavelength of 485 nm and an emission wavelength of 520 nm.

[4] = in vivo; conditions: Sprague-Dawley, rat, plasma, rats; for AUC(0-inf): read-out: AUCinf of SFN; for AUC(0-t): read-out: AUClast of SFN; for half-life: read-out: T1/2 of SFN (converted)
Protocol: To evaluate absolute oral bioavailability, an intravenous (IV) bolus dose of SFN (2 mg/kg, dissolved in normal saline, 200 µL) was administered via a cannulated femoral vein. Blood samples (300 µL) were collected from the femoral artery at predetermined time points: 0.17, 0.5, 1, 1.5, 2, 4, 8, and 12 h post-IV dosing, and 0.17, 0.5, 1, 2, 4, 6, 8, and 12 h post-oral dosing. Samples were immediately centrifuged at 13,000× g for 5 min at 4 °C to separate plasma, which was stored at −80 °C until further analysis.
The plasma concentrations of SFN were determined using liquid chromatography–tandem mass spectrometry (LC–MS/MS) following protein precipitation and solid-phase extraction. Briefly, 180 µL of plasma was spiked with 10 µL of SFN working solution (0.2–20 µg/mL) and 10 µL of internal standard (IS), phenethyl isothiocyanate (PHE, 5 µg/mL in acetonitrile). Proteins were precipitated by adding 200 µL of a solvent mixture consisting of 25% acetonitrile, 25% water, and 50% ethanol, followed by centrifugation at 18,340× g for 5 min at 4 °C. The resulting 400 µL supernatant was subjected to SPE using Oasis® HLB 96-well µElution plates (2 mg sorbent per well, 30 µm particle size; Waters Corporation, Milford, MA, USA), preconditioned with 200 µL each of methanol and water. After sample loading, the wells were washed sequentially with 200 µL of water and 50% aqueous methanol, and analytes were eluted with 400 µL of acetonitrile (2 × 200 µL).
Chromatographic separation was achieved on an ACQUITY UPLC system (Waters Corporation) using a BEH C18 column (50 × 2.1 mm, 1.7 µm). The mobile phase consisted of 10 mM ammonium acetate in water (30%, solvent A) and 0.1% formic acid in acetonitrile (70%, solvent B), delivered at a flow rate of 0.6 mL/min. The column temperature was maintained at 50 °C, and the injection volume was 10 µL.
Detection was performed using a Xevo TQ-S triple quadrupole mass spectrometer (Waters Corporation) equipped with an electrospray ionization source in the positive-ion mode. Multiple reaction monitoring (MRM) transitions were set at m/z 178.0 → 114.0 for SFN (cone voltage: 24 V; collision energy: 30 eV) and m/z 164.0 → 130.0 for PHE (cone voltage: 23 V; collision energy: 22 eV). The instrument settings included a capillary voltage of 3.0 kV, source temperature of 120 °C, desolvation temperature of 500 °C, desolvation gas (nitrogen) flow of 800 L/h, and cone gas (nitrogen) flow of 50 L/h. Argon was used as the collision gas. All the MRM parameters were optimized using the software IntelliStart^TM (Waters Corporation).
The calibration curve for SFN was linear over the range of 0.5–1000 ng/mL, with a lower limit of detection (LOD) of 0.5 ng/mL. The overall recovery of SFN using the described extraction method was 90 ± 3%, when compared to the direct analysis of the standard diluted in methanol.

[5] = pH 1.2 (mimics gastric fluid), within 1 h; cited from earlier work
[6] = after 5 weeks, cited from earlier work
[7] = in water at 25 °C; cited from earlier work
[8] = system: HDP cells; test: In vitro scratch wound recovery assay; type: cell-based, human
Protocol: No. BA-045855; Sartorius AG, […], Germany). […] Sartorius AG), following the manufacturer's instructions. Detached cells were removed by washing twice with PBS (pH 7.4). […] All treatments were performed in triplicate, including a vehicle control. […] Wound closure was quantified using the Incucyte® Scratch Wound Analysis Software Module, which calculates relative wound density (%) by comparing cell density within the wound area to that of the surrounding monolayer, providing an objective measure of cell migration and proliferation over time.

[9] = system: HaCaT keratinocytes; conditions: human, 24 h
[10] = system: HDP cells; test: In vitro cell proliferation assay (WST-1); type: cell-based, human; conditions: between 0.5 and 5 µg/mL

C[S+]([O-])CCCCN=C=S (stereo not drawn) [SFN, Sulforaphane]
concentration at which proliferation decreased (dose-dependent cytotoxicity) [1]: ≥ 5000 ng/mL | biological half-life [2]: approximately 2.2 h | relative HDP cell migration (untreated control = 100%) ([3]; 0.1 µg/mL): 141% | relative HDP cell migration (untreated control = 100%) ([3]; 1 µg/mL): 150% | relative HDP cell migration (untreated control = 100%) ([3]; 25 µg/mL): 16.7% | Cmax ([4]; SFN IV 2 mg/kg): 339 ± 50 ng/mL | AUC(0-inf) ([4]; SFN IV 2 mg/kg): 421 ± 67 ng·h/mL | AUC(0-t) ([4]; SFN IV 2 mg/kg): 403 ± 52 ng·h/mL | half-life ([4]; SFN IV 2 mg/kg): 7 ± 3 h | Cmax ([4]; SFN oral 5 mg/kg): 155 ± 17 ng/mL | Tmax ([4]; SFN oral 5 mg/kg): 2 h | bioavailability ([4]; SFN oral 5 mg/kg, vs SFN IV): 87 ± 5% | AUC(0-inf) ([4]; SFN oral 5 mg/kg): 934 ± 41 ng·h/mL | AUC(0-t) ([4]; SFN oral 5 mg/kg): 874 ± 46 ng·h/mL | half-life ([4]; SFN oral 5 mg/kg): 5 h | fraction degraded [5]: ~90% | residual SFN content ([6]; stored at 4 °C): 95.18 ± 0.20% | residual SFN content ([6]; stored at 26 °C): 78.45 ± 0.28% | residual SFN content ([6]; stored at −20 °C): 96.56 ± 0.15% | aqueous solubility [7]: ~ 1.85 mg/mL | scratch wound closure ([8]; 1 µg/mL, 16 h): 71.5% | scratch wound closure ([8]; 1 µg/mL, 20 h): 74.9% | scratch wound closure ([8]; 1 µg/mL, 24 h): 94.8% | scratch wound closure ([8]; 25 µg/mL, 16 h): significant cell detachment and reduced recovery | scratch wound closure ([8]; 25 µg/mL, 20 h): remaining below the control | concentration above which cytotoxic effects (decreased cell viability) were seen [9]: above 10 µg/mL | relative cell proliferation [10]: approximately 200%
